Experimental data as given in US9233947B2, “Sulfamides as TRPM8 modulators” (Janssen Pharmaceutica, NV, priority 2008, dated 2016).
Each block holds one molecule with its values, some of them ahead of it.

Legend:
canine TRPM8 = canine TRPM8 (Canis lupus familiaris, UniProt Q1A7N1); test: In Vitro Canine TRPM8 Functional Assay (intracellular Ca2+ fluorescence, icilin activation); format: cell-based; conditions: HEK293 cells stably expressing canine TRPM8; for IC50: icilin challenge at ~80% maximal response, eight-point dose-response, single determinations, read-out: IC50 (μM) @ 0.2; for % Inh @ 0.2 (μM) / inhibition at 0.2 µM: 0.2 μM compound, icilin challenge
canine TRPM8, sequence (Q1A7N1 1-1104): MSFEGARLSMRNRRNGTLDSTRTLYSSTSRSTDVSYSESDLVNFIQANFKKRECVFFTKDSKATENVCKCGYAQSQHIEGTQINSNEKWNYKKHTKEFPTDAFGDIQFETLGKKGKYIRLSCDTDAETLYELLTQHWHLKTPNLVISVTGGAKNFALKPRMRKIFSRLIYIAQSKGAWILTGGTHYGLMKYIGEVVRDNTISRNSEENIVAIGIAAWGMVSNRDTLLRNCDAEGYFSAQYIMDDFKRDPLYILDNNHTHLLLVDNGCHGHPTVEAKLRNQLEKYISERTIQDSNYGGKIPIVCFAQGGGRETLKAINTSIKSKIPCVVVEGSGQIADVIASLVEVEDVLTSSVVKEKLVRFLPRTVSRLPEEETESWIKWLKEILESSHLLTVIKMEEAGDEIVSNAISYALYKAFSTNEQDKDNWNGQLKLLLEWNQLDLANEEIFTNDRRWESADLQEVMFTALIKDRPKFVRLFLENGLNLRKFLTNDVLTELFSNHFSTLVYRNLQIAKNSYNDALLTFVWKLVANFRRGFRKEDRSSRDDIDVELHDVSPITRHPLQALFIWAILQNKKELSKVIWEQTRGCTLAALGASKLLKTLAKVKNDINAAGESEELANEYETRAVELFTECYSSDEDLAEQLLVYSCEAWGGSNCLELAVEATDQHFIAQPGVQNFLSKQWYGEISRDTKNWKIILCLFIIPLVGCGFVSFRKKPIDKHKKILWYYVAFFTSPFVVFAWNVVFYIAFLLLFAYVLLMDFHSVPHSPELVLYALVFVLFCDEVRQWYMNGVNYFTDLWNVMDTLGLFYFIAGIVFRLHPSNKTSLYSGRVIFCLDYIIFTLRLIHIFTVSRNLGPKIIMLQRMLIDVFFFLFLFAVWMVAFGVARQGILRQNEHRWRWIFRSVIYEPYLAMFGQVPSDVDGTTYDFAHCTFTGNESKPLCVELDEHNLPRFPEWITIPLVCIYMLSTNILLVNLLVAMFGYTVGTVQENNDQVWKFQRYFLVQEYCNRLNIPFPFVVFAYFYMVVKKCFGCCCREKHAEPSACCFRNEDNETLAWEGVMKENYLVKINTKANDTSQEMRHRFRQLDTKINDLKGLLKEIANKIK
Experimental: The functional activity of compounds of the formula (I) was determined by measuring changes in intracellular calcium concentration using a Ca^2+-sensitive fluorescent dye. The changes in fluorescent signal were monitored by a fluorescence plate reader, either a FLIPR™ (Molecular Devices) or FDSS (Hamamatsu).
At 24 hrs prior to assay, HEK293 cells stably expressing canine TRPM8 were seeded in culture medium in black wall, clear-base poly-D-lysine coated 384-well plates (BD Biosciences, NJ, USA) and grown overnight in 5% CO2 at 37° C. On assay day, growth media was removed and cells were loaded with Calcium 3 Dye (Molecular Devices) for 35 min at 37° C., under 5% CO2 and then for 25 min at room temperature and atmosphere. Subsequently, cells were tested for agonist-induced increases in intracellular Ca^2+ levels using FLIPR™ or FDSS. Cells were challenged with a compound of the Formula (I) (at varying concentrations) and intracellular Ca^2+ was measured for 5 min prior to the addition of icilin to all wells to achieve a final concentration that produces approximately an 80% maximal response. EC50 or IC50 values for compounds of the present invention were determined from eight-point dose-response studies. Curves were generated using the average of quadruplicate wells for each data point.

[1] = tested on: icilin-induced "wet-dog" shakes; test: Reversal of icilin-induced "wet-dog" shaking behavior in rats; format: in vivo; conditions: 10 mg/kg p.o., 1 h post-icilin, relative to WDS count prior to test compound dose
Experimental: Male Sprague Dawley rats (220-450 g, Charles River Labs, n=6-9/treatment) may be used to evaluate the ability of selected compounds of the formula (I) to block icilin-induced “wet-dog” shakes (WDS). Compounds of the formula (I) may be administered in an appropriate vehicle, such as hydroxypropyl-β-cyclodextrin (HPβCD), methocellulose, 10% Solutol, or H2O, or the like, by the appropriate route, i.p. or p.o., 30-120 minutes before icilin. Icilin may be administered in PEG-400 or 10% solutol/H2O, at 1.0 or 3.0 mg/kg, i.p. and spontaneous “wet-dog” shakes may be counted 10-20 minutes post-icilin.
Compounds of the present invention capable of inhibiting the onset of icilin-induced “wet-dog” shaking behavior may also be assessed for their ability to reverse an existing icilin-induced “wet-dog” shaking behavior. In this paradigm, icilin-induced shaking is counted for 10 minutes followed by administration of a compound of the present invention in a suitable vehicle such as hydroxypropyl methylcellulose, hydroxypropyl-β-cyclodextrin or 10% Solutol in water. The diminution of shaking behavior is represented as a percent inhibition relative to icilin-induced shakes in the absence of test compound administration, as described by the following formula: % Inhibition=[1−(WDS count following test compound dose/WDS count prior to test compound dose)]×100.

Molecule: Cc1c(N(Cc2ccc(OC(F)(F)F)cc2)S(=O)(=O)NS(=O)(=O)N2CCC(N(C)C)CC2)sc2ccccc12 [Compound 8]
- % Inh @ 0.2 (μM) (canine TRPM8): 36%

Molecule: Cc1c(N(Cc2ccc(OC(F)(F)F)cc2)S(=O)(=O)NS(=O)(=O)N2CCNCC2)sc2ccccc12 [Compound 3]
- % Inh @ 0.2 (μM) (canine TRPM8): 19%

Molecule: Cc1c(N(Cc2ccc(OC(F)(F)F)cc2)S(=O)(=O)N2CCC(C(=O)N3CCN(C)CC3)CC2)sc2ccccc12 [Compound 11]
- % Inh @ 0.2 (μM) (canine TRPM8): 30%

Molecule: Cc1c(N(Cc2ccc(OC(F)(F)F)cc2)S(=O)(=O)N2CCOCC2)sc2ccccc12 [Compound 2, Morpholine-1-sulfonic acid (3-methyl-benzo[b]thiophen-2-yl)-(4-trifluoromethoxy-benzyl)-amide]
- % Inh @ 0.2 (μM) (canine TRPM8): 100%
- IC50 (canine TRPM8): 0.0057 µM

Molecule: Cc1c(N(Cc2ccc(F)c(C(F)(F)F)c2)S(=O)(=O)NCCCC(=O)O)sc2ccccc12 [Compound 13, N-(4-Fluoro-3-trifluoromethyl-benzyl)-N-(3-methyl-benzo[b]-thiophen-2-yl)-N′-(butyric acid)-sulfonamide]
- % Inh @ 0.2 (μM) (canine TRPM8): 72%
- IC50 (canine TRPM8): 0.062 µM

Molecule: Cc1c(N(Cc2ccc(OC(F)(F)F)cc2)S(=O)(=O)N2CCC(C(=O)NCCN(C)C)CC2)sc2ccccc12 [Compound 12, 1-[(3-Methyl-benzo[b]thiophen-2-yl)-(4-trifluoromethoxy-benzyl)-sulfamoyl]-piperidine-4-carboxylic acid (2-dimethylamino-ethyl)-amide]
- inhibition at 0.2 µM (canine TRPM8): 70%
- IC50 (canine TRPM8): 0.061 µM

Molecule: Cc1c(N(Cc2ccc(OC(F)(F)F)cc2)S(=O)(=O)NS(=O)(=O)N2CCN(N3CCCC3)CC2)sc2ccccc12 [Compound 9]
- % Inh @ 0.2 (μM) (canine TRPM8): 9%

Molecule: Cc1c(N(Cc2ccc(OC(F)(F)F)cc2)S(=O)(=O)N2CCN(CC(F)(F)F)CC2)sc2ccccc12 [Compound 7]
- % Inh @ 0.2 (μM) (canine TRPM8): 100%
- IC50 (canine TRPM8): 0.013 µM

Molecule: Cc1c(N(Cc2ccc(OC(F)(F)F)cc2)S(=O)(=O)N2CCC(C(=O)O)CC2)sc2ccccc12 [Compound 10, 1-[(3-Methyl-benzo[b]thiophen-2-yl)-(4-trifluoromethoxy-benzyl)-sulfamoyl]-piperidine-4-carboxylic acid]
- % Inhibition [1]: 57%
- inhibition at 0.2 µM (canine TRPM8): 101%
- IC50 (canine TRPM8): 0.0046 µM

Molecule: Cc1c(N(Cc2ccc(OC(F)(F)F)cc2)S(=O)(=O)N2CCCCC2)sc2ccccc12 [Compound 1, Piperidine-1-sulfonic acid (3-methyl-benzo[b]thiophen-2-yl)-(4-trifluoromethoxy-benzyl)-amide]
- inhibition at 0.2 µM (canine TRPM8): 99%
- IC50 (canine TRPM8): 0.0036 µM

Next, values leading:

- IC50 (canine TRPM8): 0.06 µM
Molecule: 4-Isopropyl-piperazine-1-sulfonic acid (3-methyl-benzo[b]thiophen-2-yl)-(4-trifluoromethoxy-benzyl)-sulfamoyl]-amide [Compound 4]

- % Inh @ 0.2 (μM) (canine TRPM8): 101%
- IC50 (canine TRPM8): 0.0085 µM
Molecule: O=C(O)CCCCNS(=O)(=O)N(Cc1ccc(F)c(C(F)(F)F)c1)c1sc2ccccc2c1Br [Compound 16]

- % Inh @ 0.2 (μM) (canine TRPM8): 101%
- IC50 (canine TRPM8): 0.018 µM
Molecule: O=C(O)CCCNS(=O)(=O)N(Cc1ccc(F)c(C(F)(F)F)c1)c1sc2ccccc2c1Br [Compound 15, N-(3-Bromo-benzo[b]thiophen-2-yl)-N-(4-fluoro-3-trifluorobenzyl)-(N-butyric acid)-sulfonamide]

- % Inh @ 0.2 (μM) (canine TRPM8): 90%
- IC50 (canine TRPM8): 0.046 µM
Molecule: 4-Methyl-piperazine-1-sulfonic acid (3-methyl-benzo[b]thiophen-2-yl)-(4-trifluoromethoxy-benzyl)-sulfamoyl]-amide [Compound 6]

- IC50 (canine TRPM8): 0.071 µM
Molecule: 4-(3-Methyl-butyl)-piperazine-1-sulfonic acid (3-methyl-benzo[b]thiophen-2-yl)-(4-trifluoromethoxy-benzyl)-sulfamoyl]-amide [Compound 5]

- % Inh @ 0.2 (μM) (canine TRPM8): 33%
Molecule: O=C(O)CNS(=O)(=O)N(Cc1ccc(F)c(C(F)(F)F)c1)c1sc2ccccc2c1Br [Compound 14, N-(3-Bromo-benzo[b]thiophen-2-yl)-N-(4-fluoro-3-trifluorobenzyl)-(N-acetic acid)-sulfonamide]
